Source: US12180187B2, “1-phenyl-5-azinylpyrazolyl-3-oxyalkyl acids and their use for controlling unwanted plant growth” (BAYER AKTIENGESELLSCHAFT, priority 2019, dated 2024)

What was measured:
SETVI [1] = assay: Post-emergence action against SETVI, 1.28 kg/ha; type: in vivo, Setaria viridis; conditions: dosage 1280 g/ha, visual rating about 3 weeks after treatment vs untreated controls
Protocol: (§1) • a) Seeds of mono- and dicotyledonous weed plants are placed in plastic pots in sandy loam soil (twin sowing with one species each of mono- or dicotyledonous weed plants per pot), covered with soil and cultivated in a greenhouse under controlled growth conditions. 2 to 3 weeks after sowing, the test plants are treated at the one-leaf stage. The compounds of the invention, formulated in the form of wettable powders (WP) or as emulsion concentrates (EC), are applied to the green parts of the plants as aqueous suspension or emulsion with addition of 0.5% additive at a water application rate equivalent to 600 litres per hectare. After the test plants have been kept in the greenhouse under optimum growth conditions for about 3 weeks, the activity of the preparations is rated visually in comparison to untreated controls. For example, 100% activity=the plants have died, 0% activity=like control plants. As shown by the results, compounds of the general formula (I) of the invention, in post-emergence treatment, have very good herbicidal efficacy (90% to 100% herbicidal action) against harmful plants such as Abutilon theophrasti, Digitaria sanguinalis, Echinochloa crus-galli, Matricaria inodora, Poa annua, at an application rate of 1.28 kg of active substance per hectare.

ECHCG [2] = assay: Pre-emergence action against ECHCG, 1280 g/ha; type: in vivo, Echinochloa crus-galli; conditions: visual scoring after about 3 weeks vs untreated controls, 100% = plants have died, 0% = like control plants
Method in brief: (§2)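 Weed seeds sown in sandy loam in pots, covered with soil; compound as WP or EC applied to soil surface as aqueous suspension/emulsion with 0.5% additive at 600 L/ha water. Greenhouse, good growth conditions; visual % damage vs untreated controls after about 3 weeks (100% = plants dead, 0% = like control).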

SETVI [3] = assay: Pre-emergence action against SETVI, 1280 g/ha; type: in vivo, Setaria viridis; conditions: visual scoring after about 3 weeks vs untreated controls, 100% = plants have died, 0% = like control plants
Method in brief: as §2

LOLRI [4] = assay: Pre-emergence action against LOLRI, 1280 g/ha; type: in vivo, Lolium rigidum; conditions: visual scoring after about 3 weeks vs untreated controls, 100% = plants have died, 0% = like control plants
Method in brief: as §2

MATIN [5] = assay: Post-emergence action against MATIN, 1.28 kg/ha; type: in vivo, Tripleurospermum inodorum (Matricaria inodora); conditions: dosage 1280 g/ha, visual rating about 3 weeks after treatment vs untreated controls (100% = plants died)
Method in brief: (§3)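 Greenhouse-grown weeds (sandy loam, twin-sown pots) were treated 2–3 weeks post-sowing at one leaf. The spray was an aqueous WP/EC preparation plus 0.5% additive, applied at 600 L/ha. Scoring was visual at ~3 weeks, 0–100% versus untreated controls.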

DIGSA [6] = assay: Pre-emergence action against DIGSA, 1280 g/ha; type: in vivo, Digitaria sanguinalis; conditions: visual scoring after about 3 weeks vs untreated controls, 100% = plants have died, 0% = like control plants
Method in brief: as §2

POAAN [7] = assay: Pre-emergence action against POAAN, 1280 g/ha; type: in vivo, Poa annua; conditions: visual scoring after about 3 weeks vs untreated controls, 100% = plants have died, 0% = like control plants
Method in brief: as §2

MATIN [8] = assay: Pre-emergence action against MATIN, 1280 g/ha; type: in vivo, Tripleurospermum inodorum (Matricaria inodora); conditions: scored visually after about 3 weeks vs untreated controls (100% = plants have died)
Method in brief: as §2

LOLRI [9] = assay: Post-emergence action against LOLRI, 1.28 kg/ha; type: in vivo, Lolium rigidum; conditions: dosage 1280 g/ha, visual rating about 3 weeks after treatment vs untreated controls
Protocol: as §1

ECHCG [10] = assay: Post-emergence action against ECHCG, 1.28 kg/ha; type: in vivo, Echinochloa crus-galli; conditions: dosage 1280 g/ha, visual rating about 3 weeks after treatment vs untreated controls
Method in brief: as §3

VERPE [11] = assay: Pre-emergence action against VERPE, 1280 g/ha; type: in vivo, Veronica persica; conditions: scored visually after about 3 weeks vs untreated controls (100% = plants have died)
Method in brief: as §2

DIGSA [12] = assay: Post-emergence action against DIGSA, 1.28 kg/ha; type: in vivo, Digitaria sanguinalis; conditions: dosage 1280 g/ha, visual rating about 3 weeks after treatment vs untreated controls
Method in brief: as §3

STEME [13] = assay: Post-emergence action against STEME, 1.28 kg/ha; type: in vivo, Stellaria media; conditions: dosage 1280 g/ha, visual rating about 3 weeks after treatment vs untreated controls (100% = plants died)
Protocol: as §1

VERPE [14] = assay: Post-emergence action against VERPE, 1.28 kg/ha; type: in vivo, Veronica persica; conditions: dosage 1280 g/ha, visual rating about 3 weeks after treatment vs untreated controls (100% = plants died)
Method in brief: as §3

AMARE [15] = assay: Pre-emergence action against AMARE, 1280 g/ha; type: in vivo, Amaranthus retroflexus; conditions: scored visually after about 3 weeks vs untreated controls (100% = plants have died)
Method in brief: as §2

STEME [16] = assay: Pre-emergence action against STEME, 1280 g/ha; type: in vivo, Stellaria media; conditions: scored visually after about 3 weeks vs untreated controls (100% = plants have died)
Method in brief: as §2

POAAN [17] = assay: Post-emergence action against POAAN, 1.28 kg/ha; type: in vivo, Poa annua; conditions: dosage 1280 g/ha, visual rating about 3 weeks after treatment vs untreated controls
Method in brief: as §3

ALOMY [18] = assay: Post-emergence action against ALOMY, 1.28 kg/ha; type: in vivo, Alopecurus myosuroides; conditions: dosage 1280 g/ha, visual rating about 3 weeks after treatment vs untreated controls
Method in brief: as §3

AMARE [19] = assay: Post-emergence action against AMARE, 1.28 kg/ha; type: in vivo, Amaranthus retroflexus; conditions: dosage 1280 g/ha, visual rating about 3 weeks after treatment vs untreated controls (100% = plants died)
Method in brief: as §3

ALOMY [20] = assay: Pre-emergence action against ALOMY, 1280 g/ha; type: in vivo, Alopecurus myosuroides; conditions: visual scoring after about 3 weeks vs untreated controls, 100% = plants have died, 0% = like control plants
Method in brief: as §2

ABUTH = assay: Post-emergence action against ABUTH, 1.28 kg/ha; type: in vivo, Abutilon theophrasti; conditions: dosage 1280 g/ha, visual rating about 3 weeks after treatment vs untreated controls (100% = plants died)
Method in brief: as §3

Structure (SMILES)	Post-emergence action against SETVI (SETVI [1]) [%]	Pre-emergence action against ECHCG (ECHCG [2]) [%]	Pre-emergence action against SETVI (SETVI [3]) [%]	Pre-emergence action against LOLRI (LOLRI [4]) [%]	Post-emergence action against MATIN (MATIN [5]) [%]	Pre-emergence action against DIGSA (DIGSA [6]) [%]	Pre-emergence action against POAAN (POAAN [7]) [%]	Pre-emergence action against MATIN (MATIN [8]) [%]	Post-emergence action against LOLRI (LOLRI [9]) [%]	Post-emergence action against ECHCG (ECHCG [10]) [%]	Pre-emergence action against VERPE (VERPE [11]) [%]	Post-emergence action against DIGSA (DIGSA [12]) [%]	Post-emergence action against STEME (STEME [13]) [%]	Post-emergence action against VERPE (VERPE [14]) [%]	Pre-emergence action against AMARE (AMARE [15]) [%]	Pre-emergence action against STEME (STEME [16]) [%]	Post-emergence action against POAAN (POAAN [17]) [%]	Post-emergence action against ALOMY (ALOMY [18]) [%]	Post-emergence action against AMARE (AMARE [19]) [%]	Post-emergence action against ABUTH (ABUTH) [%]	further results
Cc1ccccc1-n1nc(OCC(=O)O)c(I)c1-c1ccc(F)nc1 [VII-097]	90	100	100	100	90	100	100	90	90	100	100	100	90	100	100	100	100	100	–	–	–
O=C(O)CNC(=O)COc1nn(-c2ccccc2F)c(-c2ccc(F)nc2)c1C(F)(F)F [Example X-026]	100	100	100	100	100	100	100	100	90	–	100	100	100	90	100	100	100	100	90	90	Pre-emergence action against ALOMY (ALOMY [20]): 100%
COC(=O)C(C)Oc1nn(-c2ccccc2)c(-c2ccnc(F)c2)c1Cl (centres unmarked) [VIII-007]	–	100	100	100	90	90	100	90	100	90	100	90	100	100	100	90	100	–	100	90	–
